We go through 17 molecules from patent US5877199A, “Heterocyclic compounds, their preparation and their therapeutic use” (priority 1994, dated 1999).

The target in the first test is T1, m1 muscarinic receptors (Homo sapiens, UniProt P11229).
T1 construct: expressed in transfected cells; host or cells: CHO (Chinese Hamster Ovary) cells, membranes
T1 sequence (P11229 1-460): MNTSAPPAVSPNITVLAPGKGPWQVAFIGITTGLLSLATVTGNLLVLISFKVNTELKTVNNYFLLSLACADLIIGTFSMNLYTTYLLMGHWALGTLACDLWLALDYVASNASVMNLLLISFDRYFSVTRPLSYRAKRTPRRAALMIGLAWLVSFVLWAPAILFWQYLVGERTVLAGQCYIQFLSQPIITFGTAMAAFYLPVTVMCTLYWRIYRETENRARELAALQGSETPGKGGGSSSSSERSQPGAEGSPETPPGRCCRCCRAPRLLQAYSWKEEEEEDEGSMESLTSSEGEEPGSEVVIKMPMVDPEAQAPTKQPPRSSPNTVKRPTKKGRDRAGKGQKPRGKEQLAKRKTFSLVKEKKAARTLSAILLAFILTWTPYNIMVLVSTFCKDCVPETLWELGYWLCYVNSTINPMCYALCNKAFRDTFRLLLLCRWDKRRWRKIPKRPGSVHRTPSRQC
Put plainly: Effect on ACh binding: ACh inhibition of 3H-NMS binding (indirect assay) on CHO cell membranes. Particulars: tested at 3 μg/ml; 0.15 nM 3H-NMS, 30 μM ACh, 0.2 mM GTP, pH 7.4, 30° C., two hours. An excerpt: The compounds of the present invention may be assayed for allosteric activity at m1 muscarinic receptors as described below, although the assays we describe are not necessarily exhaustive, and other assays may be employed, as desired, to establish allosterism.
A suitable cell line is CHO (Chinese Hamster Ovary), which are readily engineered to express only one receptor sub-type.
To obtain the large amount of cell membranes required, plates of 530 cm^2 culture area were used. CHO cells which express m1, m2, m3 and m4 receptors were grown separately in MEM alpha medium containing 10% newborn calf serum and antibiotics. When cells reached confluence, they were washed twice with 10 ml of 20 mM HEPES containing 10 mM EDTA (pH 7.4), scraped into the same buffer and homogenized using a Polytron (trademark) homogenizer (setting 5-6 for 5 sec×2). Membrane pellets were obtained by centrifugation (40000×g, 10 min, 4° C.) and resuspended in 20 mM HEPES-0.1 mM EDTA (pH 7.4). Centrifugation and resuspension were repeated twice to wash the cell membranes. After measurement of membrane protein, the membranes (1 or 2 mg protein/ml) were stored at -70° C.
While the direct assay measures ACh (=acetylcholine) binding only to the high affinity state, the indirect assay measures effects only at the low affinity state. This is achieved by including 0.2 mM GTP in the assay. In this assay a fixed concentration of ^3 H-NMS (roughly the Kd value) is incubated in the absence and presence of a fixed concentration of ACh (at about the IC50 value) and the effects of three concentrations of test agent are measured, again in the absence and presence of ACh.
Calculating the effects on ^3 H-NMS binding alone is as follows: binding in the presence of the agent is expressed as a percentage of binding in its absence and, if the effect is inhibitory, an IC50 is estimated graphically. The assay also contains a single high concentration of ^3 H-NMS (4 nM, about 30 times the Kd) which provides an estimate of Bmax (i.e. maximum binding).
Expressing the effect on cold ACh binding will be explained with reference to FIGS. 1a, b and c. These figures show theoretical data and the effects of the transformations described below. In FIGS. 1a and 1b ^3 H-NMS and cold ACh are present at their Kd concentrations; in FIG. 1a the agent has a negative allosteric effect on ^3 H-NMS, while in FIG. 1b it has a positive allosteric effect on ^3 H-NMS. The left panels show the amount of ^3 H-NMS specifically bound in the assay. If the affinity of ACh is reduced by the test agent, as shown in the top panels of FIGS. 1a and 1b, the inhibition by ACh will decrease, but the counts recovered will also depend on the effect of the agent on ^3 H-NMS binding alone. To calculate the effect on ACh binding the inhibitory effect of ACh is first calculated as a percent of its own control in the absence of ACh. Next it is assumed that fractional inhibition is the same as tractional occupancy, and inhibition in the presence of agent is expressed as a percentage of inhibition in the absence of agent. The effects of these transformations are shown in the centre panels. Expressing inhibition by ACh in the presence of agent as a percentage of inhibition in the absence of agent allows the effect of the agent on cold ACh binding to be seen on the same scale as the effect on ^3 H-NMS and ^3 H-ACh binding and is generally preferred.
If the concentration of ^3 H-NMS used in the indirect assay is around the Kd value or less, the transformation described above provides a qualitative and semi-quantitative measure of the agent's effect. If a higher concentration of ^3 H-NMS is used, or if the agent has a positive allosteric effect on ^3 H-NMS, then the results of this transformation may be misleading. […] It is assumed that ACh binds to a single affinity state i.e. that its inhibition curve has a slope of 1, and so an IC50 is calculated from the percentage inhibition of control binding. […]
As to `Cc1cc(CC(=O)O)c(SC(C)C)c2c1c1ccccc1n2Cc1ccccc1` [Example 218, (9-Benzyl-4-methyl-1-i-propylthiocarbazol-2-yl)acetic Acid], the “Effect on ACh Binding” value worked out at 4.91.
For the molecule `CSc1c(CC(=O)O)cc(C)c2c3ccccc3n(CCc3ccccc3)c12` [Example 212, [4-Methyl-1-methylthio-9-(2-phenethyl)carbazol-2-yl]acetic Acid], the “Effect on ACh Binding” value was found to be 4.93.
The same measure, in the same setting: next, `CCCSc1c(CC(=O)O)cc(C)c2c3ccccc3n(C)c12` [Example 210, (4,9-Dimethyl-1-propylthiocarbazol-2-yl)acetic Acid]: 2.03; `CCCc1cc(CC(=O)O)c(SC)c2c1c1ccccc1n2Cc1ccc([N+](=O)[O-])cc1` [Example 176, [1-Methylthio-9-(4-nitrobenzyl)-4-propylcarbazol-2-yl]acetic Acid]: 2.08; `Cc1c(CCC(=O)O)ccc2c3ccccc3n(Cc3ccccc3)c12` [Example 37, 3-(9-Benzyl-1-methylcarbazol-2-yl)propionic acid]: 2.09.
Same read-out and setting: as for `CSc1c(C(Cc2ccccc2)C(=O)O)cc(C)c2c1[nH]c1ccccc12` (stereo not drawn) [Example 15, 2-(4-Methyl-1-methylthiocarbazol-2-yl)-3-phenylpropionic acid], the figure is 2.42; as for `CSc1c(CC(=O)O)cc(C)c2c3ccccc3n(Cc3ccc(Cl)c(Cl)c3)c12` [Example 149, [9-(3,4-Dichlorobenzyl)-4-methyl-1-methylthiocarbazol-2-yl]acetic Acid], 6.49; as for `CSc1c(CC(=O)O)cc(C)c2c3ccccc3n(CCCc3ccccc3)c12` [Example 214, [4-Methyl-1-methylthio-9-(3-phenylpropyl)carbazol-2-yl]acetic Acid], 4.34.
On the same count and under the same terms, next, `CSc1c(Cc2nnn[nH]2)cc(C)c2c3ccccc3n(Cc3ccccc3)c12` [Example 97, 5-[(9-Benzyl-4-methyl-1-methylthiocarbazol)-2-yl-methyl]-1H-tetrazole]: 4.97.
As to `CSc1c(Cc2nnn[nH]2)cc(C)c2c3ccccc3n(Cc3ccc(Cl)c(Cl)c3)c12` [Example 152, 5-[9-(3,4-Dichlorobenzyl)-4-methyl-1-methylthiocarbazol-2-yl]methyl-1H-tetrazole], the “Effect on ACh Binding” value came out at 2.02.
Same read-out and setting: as for `CCCc1cc(C(Cc2cccc([N+](=O)[O-])c2)C(=O)O)c(SC)c2c1c1ccccc1n2Cc1cccc([N+](=O)[O-])c1` (stereo not drawn) [Example 172, 2-[1-Methylthio-9-(3-nitrobenzyl)-4-propylcarbazol-2-yl]-3-(3-nitrophenyl)propionic Acid], the figure is 2.59; as for `CSc1c(CC(=O)O)cc(C)c2c3ccccc3n(Cc3cccc(OCc4ccccc4)c3)c12` [Example 136, [9-(3-Benzyloxybenzyl)-4-methyl-1-methylthiocarbazol-2-yl]acetic Acid], 2.36.
On the same count and under the same terms, next, `CSc1c(CC(=O)O)ccc2c3ccccc3n(Cc3ccccc3)c12` [Example 5, (9-Benzyl-1-methylthiocarbazol-2-yl)acetic acid]: 2.62.

Another test concerns M2 muscarinic receptors in the heart.
Test: not given
Particulars: Tucek et al. 1993; cited from earlier work.
As to `C=CC[N@@+]12CC[C@@]34c5ccccc5N5/C=C6/[C@H]7C[C@H]8[C@@]9(CC[N@@+]8(CC=C)C/C7=C/CO)c7ccccc7N(/C=C(/[C@@H](C[C@@H]31)/C(=C\CO)C2)[C@H]54)[C@@H]69` [alcuronium], the “effect on affinity of M2 muscarinic receptors for NMS” value is listed as “allosterically increases the affinity of M2 muscarinic receptors in the heart for NMS”.

A further test concerns heart receptors.
Test: not given
Particulars: Riker and Wescoe 1951; cited from earlier work.
For `CC[N+](CC)(CC)CCOc1cccc(OCC[N+](CC)(CC)CC)c1OCC[N+](CC)(CC)CC` [gallamine], the “action on heart receptors” value is “negative action on heart receptors”.

Still in this test, the particulars now being: subsequently established; cited from earlier work.
Take `CC[N+](CC)(CC)CCOc1cccc(OCC[N+](CC)(CC)CC)c1OCC[N+](CC)(CC)CC` [gallamine]: the “competitive antagonism for acetylcholine” value is recorded as “not a competitive antagonist for acetylcholine”.

The next test relates to muscarinic receptors.
Test: not given
Particulars: reported; cited from earlier work.
In the case of batrachotoxin, the “allosteric effects on antagonist binding” value is “negative allosteric effects on antagonist binding”.
`COc1cc2c3cc1Oc1cc(ccc1O)C[C@@H]1c4c(cc(OC)c(O)c4Oc4ccc(cc4)C[C@@H]3N(C)CC2)CC[N+]1(C)C` [Tubocurarine]: the “allosteric effects on antagonist binding” value is “negative allosteric effects on antagonist binding”.
